Source: article PMC4019636, “Rational Design of Berberine-Based FtsZ Inhibitors with Broad-Spectrum Antibacterial Activity” (PLoS ONE, 2014)

Assays:
S. aureus FtsZ [1] = target: T1, S. aureus FtsZ (Staphylococcus aureus, UniProt P0A031); assay: Transmission electron microscopy of FtsZ polymers; assay type: biochemical; settings: FtsZ 12 µM, TEM
T1 construct: made in house; host or cells: E. coli BL21(DE3)
T1 sequence (P0A031 1-390): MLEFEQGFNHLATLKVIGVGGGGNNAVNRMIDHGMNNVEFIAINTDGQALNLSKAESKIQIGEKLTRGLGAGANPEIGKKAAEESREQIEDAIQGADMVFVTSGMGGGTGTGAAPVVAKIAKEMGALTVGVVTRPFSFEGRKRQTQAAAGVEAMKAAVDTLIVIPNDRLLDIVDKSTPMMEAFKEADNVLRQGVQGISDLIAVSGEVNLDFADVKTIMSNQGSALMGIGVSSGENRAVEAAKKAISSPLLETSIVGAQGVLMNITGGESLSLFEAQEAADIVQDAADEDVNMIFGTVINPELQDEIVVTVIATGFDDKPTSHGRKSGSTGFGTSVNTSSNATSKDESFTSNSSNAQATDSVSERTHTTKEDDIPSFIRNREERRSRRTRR
Protocol: E. coli BL21(DE3) cells were transformed with the pRSET-A-S vector carrying S. aureus FtsZ with a 6-histidine tag attached at its N-terminus under the control of a T7 promoter. […] When the OD600 reached 0.8, protein expression was induced with 0.4 mM isopropyl-β-D-thiogalactopyranoside (IPTG) for 4 h. Cells were harvested by centrifugation at 9000 rpm for 20 min at 4°C. The cell pellet was resuspended in 20 mL of solubilization buffer (50 mM Tris-HCl, 150 mM NaCl, 1 mM PMSF and 1 mM EDTA, pH 7.4) and then lysed with 1 mg/mL of lysozyme. The mixture was incubated for 1 h on ice. The cells were disrupted by sonication and the crude lysate obtained was centrifuged at 13,000 rpm for 1 h at 4°C. The supernatant containing 6-histidine tagged S. aureus FtsZ was collected and loaded onto a nickel charged HiTrap chelating column pre-equilibrated with starting buffer (20 mM sodium phosphate buffer, 0.5 M NaCl, pH 7.4). The column was then washed with 8 column volumes of the starting buffer to remove the unbound proteins, and the histidine-tagged enzyme was eluted by a linear gradient of 0−0.2 M imidazole. Fractions containing S. aureus FtsZ were pooled, buffer-exchanged with 20 mM NH4HCO3 (pH 8.0) at 4°C, lyophilized, and stored at −20°C. A stock solution of S. aureus FtsZ for the subsequent bioassay was prepared from the lyophilized powder. […]

[2] = test system: GFP-tagged FtsZ in E. coli JM109 WM647; assay: Z-ring visualization in E. coli cells; assay type: cell-based; settings: 48 µM compound, 4 h at 37°C
Protocol: A culture of E. coli JM109 WM647 containing the IPTG-inducible plasmid for the overexpression of green fluorescence protein (GFP)-tagged FtsZ was grown in LB medium supplemented with 30 µg/mL of chloramphenicol. After overnight incubation, a sample of the culture was diluted to 1% in the LB medium containing different concentrations of the test compound and 40 µM of IPTG. After 4 h incubation at 37°C, the E. coli cells were fixed, harvested and resuspended in PBS buffer containing 0.25% of agarose. 10 µL of sample mixture were added to a pretreated microscopic slide with 0.1% (w/v) poly-L-lysine and visualized using a fluorescence microscope at 60× oil immersion magnification with a standard FITC filter set. The images were captured using an Olympus Bio Imaging Navigator FSX 100 microscope.

[3] = test system: Gram-positive bacteria, including methicillin-resistant S. aureus and vancomycin-resistant E. faecium; assay: Antimicrobial susceptibility assay, summary over Gram-positive bacteria; assay type: cell-based; settings: Staphylococcus aureus; Gram-positive bacteria incl. MRSA and VREF
Source text: The bacterial strains S. aureus ATCC 29213, S. aureus ATCC 29247, S. aureus ATCC BAA-41, E. faecium ATCC 49624, E. faecium ATCC 700221, E. faecalis ATCC 29212, S. epidermidis ATCC 12228, E. coli ATCC 25922, and K. pneumoniae ATCC BAA-1144 used in the antimicrobial susceptibility assays were purchased from American Type Culture Collection (ATCC, USA). B. subtilis strain 168 was already available in our in-house collection. E. coli JM109 WM647 was kindly provided by Dr. W. Margolin (University of Texas-Houston Medical School). FM 4–64 was purchased from Invitrogen (Eugene, Oregon). All other chemicals and reagents were purchased from Sigma-Aldrich. Stock solutions were prepared in DMSO. The final percentage of DMSO in the assays was 1% (v/v) for all experiments.
Antimicrobial susceptibility tests were conducted in 96-well microplates using the broth microdilution procedure described in the Clinical and Laboratory Standards Institute (CLSI) guidelines. […] After incubation for 18 h at 37°C, the absorbance at 600 nm (A600) was recorded using a microplate reader (Bio-Rad laboratory Ltd., UK) and the percentage of bacterial cell inhibition with respect to vehicles (1% DMSO) was calculated. […]

S. aureus FtsZ [4] = target: T1, S. aureus FtsZ; assay: Light scattering assay of FtsZ polymerization; assay type: biochemical; settings: for inhibition of polymerization in the presence of Triton X-100: 0.01% Triton X-100, berberine 200 and 500 µM, compound 2 10 and 25 µM
Protocol: E. coli BL21(DE3) cells were transformed with the pRSET-A-S vector carrying S. aureus FtsZ with a 6-histidine tag attached at its N-terminus under the control of a T7 promoter. […] When the OD600 reached 0.8, protein expression was induced with 0.4 mM isopropyl-β-D-thiogalactopyranoside (IPTG) for 4 h. Cells were harvested by centrifugation at 9000 rpm for 20 min at 4°C. The cell pellet was resuspended in 20 mL of solubilization buffer (50 mM Tris-HCl, 150 mM NaCl, 1 mM PMSF and 1 mM EDTA, pH 7.4) and then lysed with 1 mg/mL of lysozyme. The mixture was incubated for 1 h on ice. The cells were disrupted by sonication and the crude lysate obtained was centrifuged at 13,000 rpm for 1 h at 4°C. The supernatant containing 6-histidine tagged S. aureus FtsZ was collected and loaded onto a nickel charged HiTrap chelating column pre-equilibrated with starting buffer (20 mM sodium phosphate buffer, 0.5 M NaCl, pH 7.4). The column was then washed with 8 column volumes of the starting buffer to remove the unbound proteins, and the histidine-tagged enzyme was eluted by a linear gradient of 0−0.2 M imidazole. Fractions containing S. aureus FtsZ were pooled, buffer-exchanged with 20 mM NH4HCO3 (pH 8.0) at 4°C, lyophilized, and stored at −20°C. A stock solution of S. aureus FtsZ for the subsequent bioassay was prepared from the lyophilized powder.
The light scattering assay was performed using a protocol adapted from the literature. The polymerization and depolymerization of recombinant S. aureus FtsZ was measured using 90° light scattering in a thermostatically (37°C) controlled fluorescence spectrometer (Perkin Elmer, USA). Both excitation and emission wavelengths were set to 600 nm with a slit width of 2.5 nm. S. aureus FtsZ (6 µM) in 50 mM of MOPS buffer (pH 6.5) was incubated with vehicle (1% DMSO) or different concentrations of the test compound for 10 min at 25°C. 50 mM KCl and 10 mM MgCl2 were then added to establish a baseline. After 8 min, a final concentration of 1 mM GTP was added at the last fraction and the increase in light scattering was measured for an additional 2000s. The rate and extent of polymerization were measured. Appropriate blanks were subtracted from all experimental data. Moreover, in order to rule out unselective inhibition by formation of aggregates, control experiments with 0.01% (v/v) Triton X-100 from a freshly prepared 1% (v/v) stock solution were performed for berberine and compound 2 [40], [41]. Reported results are the average of three independent experiments.

Row | Compound | reduction of the thickness of the bundles of FtsZ protofilaments (S. aureus FtsZ [1]; 8.8 µM compound) | Z-ring formation / localization of GFP-tagged FtsZ [2] | MIC [3] | reduction of the thickness of the bundles of FtsZ protofilaments (S. aureus FtsZ [1]; 4 µM compound) | inhibition of S. aureus FtsZ polymerization at increasing concentrations (S. aureus FtsZ [4]; 10 µM, 25 µM and 50 µM compound) | inhibition at 50 µM (S. aureus FtsZ [4]; 50 µM compound, FtsZ 6 µM, 1 mM GTP, light scattering) | inhibition of polymerization in the presence of Triton X-100 (S. aureus FtsZ [4]) | inhibition at 200 µM (S. aureus FtsZ [4]; 200 µM compound, FtsZ 6 µM, 1 mM GTP, light scattering)
1 | COc1ccc2cc3[n+](cc2c1OCCCOc1ccccc1)CCc1cc2c(cc1-3)OCO2 [Compound 1] | 60% |  |  |  |  |  |  | 
2 | COc1ccc2cc3[n+](cc2c1OCCCOc1ccc(Cl)cc1)CCc1cc2c(cc1-3)OCO2 [Compound 2] |  | caused mislocalization of the FtsZ protein | 2 to 4 µg/mL | 70% | strongly inhibited the S. aureus FtsZ polymerization in a dose-dependent manner | ~70% | maintained | 
3 | COc1ccc2cc3[n+](cc2c1OC)CCc1cc2c(cc1-3)OCO2 [Berberine, Berberine chloride] |  |  |  |  |  |  | maintained | ~30%
